According to patent US5753664A, “Heterocyclic compounds, their production and use” (Takeda Chemical Industries, Ltd., priority 1995, dated 1998):
Values belong to the molecule of their own block, whether it stands above or below them.

Tests used:
[1] = test system: human prostatic carcinoma cells PC-3; test: Inhibitory action against the growth of subcutaneously implanted tumor (Test Example 2, subcutaneous dosing); type: in vivo, human; BALB/c nu/nu mouse; conditions: 80 mg/kg s.c., Mon/Wed/Fri for 3 weeks; for Tumor volume gain: 46th day after transplantation, mean ± SD; for T/C: 46th day, ratio of tumor volume gain treated/control
Protocol: Inhibitory action of the test compounds against the growth of subcutaneously implanted tumor
The human prostatic carcinoma cells PC-3, which are maintained in vitro, were harvested using 0.05% trypsin, washed with Ham's F12K medium containing 10% serum, and then suspended in PBS (phosphate-buffered saline) at a concentration of 3×10^7 cells/ml. The aliquot of 100 μl was transplanted into the right central flank region of a 7-week old, male BALB/c nu/nu mouse using a syringe with a 25 gauge needle. After the size of the resulting tumor mass was measured on the 25th day after the transplantation, the mice were divided into groups of five animals (the average tumor volume of each group was between […]), and then the treatment with test compounds was commenced. Tumor volume was calculated according to the formulation: tumor volume =0.5×(the longest diameter)×(the shortest diameter)^2 after two-dimensional measurement of the tumor mass by a caliper. The test compounds were suspended in 0.5% methylcellulose/physiological saline, and subcutaneously injected at a volume of 10 μl/g body weight.
Thereafter the test compounds were administered every Monday, Wednesday and Friday for 3 weeks. The inhibitory action was assessed on the 46th day after the transplanation by the ratio of tumor volume gain of treated groups to that of the control group(T/C %). The dosage of the test compounds was expressed as mg/kg/shot.

[2] = test system: Prostate carcinoma cell line PC-3; test: In vitro prostate carcinoma cell proliferation inhibition assay (MTT); type: cell-based, human; conditions: Homo sapiens, 72 h; PC-3, 3 days incubation, MTT; read-out: IC50 PC-3
Protocol: In vitro prostate carcinoma cell proliferation inhibition assay
Prostate carcinoma cell line PC-3 cells were suspended in Ham's F-12K medium (Flow Laboratories or Dainippon Pharmaceutical Co,. Ltd) supplemented with 10% fetal calf serum, and seeded in a 96-well microtiter plate (5000 cells/50 or 75 μl/well). The plate was then incubated in a 5% CO2 incubator at 37° C. On the following day, a 3-fold dilution series with the medium with serum of the test compound in N,N-dimethylformamide (DMF) (50 or 25 μl/well) were added (final volume […]) and the plate was incubated for another 3 days. Following addition of a thiazolyl-tetrazolium (MTT) solution, absorbance based on the viable cell number was determined "Tada et al., Journal of Immunological Methods, 93, 157 (1986)". With the estimated cell number in the control group to which the test compound solution was not added being taken as 100%, the percentage of the estimated cell number in each test group was determined and the concentration (IC50 value) of the test compound which was required for 50% inhibition of the estimated viable cell number in the control group was calculated.

[3] = test system: human prostatic carcinoma cells PC-3; test: Inhibitory action against the growth of subcutaneously implanted tumor (Test Example 4, oral dosing); type: in vivo, human; BALB/c nu/nu mouse; conditions: once a day for 3 weeks; for Tumor volume gain: 52nd day after transplantation, mean ± SD; for T/C: 52nd day, ratio of tumor volume gain treated/control
Protocol: (§1) Inhibitory action of the test compound against the growth of subcutaneously implanted tumor
The human prostatic carcinoma cells PC-3, which are maintained in vitro, were harvested using 0.05% trypsin, washed with Ham's F12K medium containing 10% serum, and then suspended in PBS (phosphate-buffered saline) at a concentration of 3×10^7 cells/ml. The aliquot of 100 μl was transplanted into the right central flank region of a 7-week old, male BALB/c nu/nu mouse using a syringe with a 25 gauge needle. After the size of the resulting tumor mass was measured on the 31st day after the transplanation, the mice were divided into groups of five animals (the average tumor volume of each group was between 273 and 293 mm^3), and then the treatment with test compound was commenced. Tumor volume was calculated according to the formulation: tumor volume=0.5×(the longest diameter)×(the shortest diameter)^2 after two-dimensional measurement of the tumor mass by a caliper. The test compound was suspended in 0.5% methylcellulose/physiological saline, and orally administered at a volume of 10 μl/g body weight. Thereafter the test compound was administered once a day for 3 weeks. The inhibitory action was assessed on the 52nd day after the transplanation, the first day after the last administration, by the ratio of tumor volume gain of treated groups to that of the control group (T/C %). The dosage of the test compound is expressed as mg/kg/shot.

[4] = test system: human prostatic carcinoma cells PC-3; test: Inhibitory action against the growth of subcutaneously implanted tumor (Test Example 3, oral dosing); type: in vivo, human; BALB/c nu/nu mouse; conditions: 75 mg/kg p.o., once a day for 3 weeks
Protocol: as §1
The human prostatic carcinoma cells PC-3, which are maintained in vitro, were harvested using 0.05% trypsin, washed with Ham's F12K medium containing 10% serum, and then suspended in PBS (phosphate-buffered saline) at a concentration of 3×10^7 cells/ml. The aliquot of 100 μl was transplanted into the right central flank region of a 7-week old, male BALB/c nu/nu mouse using a syringe with a 25 guage needle. After the size of the resulting tumor mass was measured on the 32nd day after the transplantation, the mice were divided into groups of five animals (the average tumor volume of each group was between 273 and 293 mm^3), and then the treatment with test compound was commenced. Tumor volume was calculated according to the formulation: tumor volume =0.5×(the longest diameter)×(the shortest diameter)2 after two-dimensional measurement of the tumor mass by a caliper. The test compound was suspended in 0.5% methylcellulose/physiological saline, and orally administered at a volume of 10 μl/g body weight. […] The inhibitory action was assessed on the 53rd day after the transplanation, the first day after the last administration, by the ratio of tumor volume gain of treated groups to that of the control group (T/C %). The dosage of the test compounds was expressed as mg/kg/shot.

Structure (SMILES): Cc1cccc2nc(SCc3ccc(C(=O)c4ccc(Cl)cc4)cc3)n(C)c(=O)c12 [Example 42, 2-[4-(4-Chlorobenzoyl)benzylthio]-3,5-dimethyl-quinazolin-4-one]
Tumor volume gain [1]: 329 ± 252 mm^3
T/C [1]: 36%

Structure (SMILES): Cn1c(SCc2ccc(C(=O)c3ccc(Cl)cc3)cc2)nc2ccsc2c1=O [Example 7, 2-[4-(4-Chlorobenzoyl)benzyl]thio-3-methylthieno-[3,2-d]pyrimidin-4(3H)-one]
Tumor volume gain [1]: 445 ± 110 mm^3
T/C [1]: 49%

Structure (SMILES): CC(C)(C)n1ncc2c(cnn2Cc2ccc(C(=O)c3ccc(Cl)cc3)cc2)c1=O [62(A), 5-Tert-butyl-1-[4-(4-chlorobenzoyl)benzyl]-1H-pyrazolo[3,4-d]pyridazin-4(5H)-one]
IC50 [2]: < 1.52 nM

Second part, led by results:

IC50 [2]: 4.6 nM
Structure (SMILES): Cc1c(OCc2ccc(C(=O)c3ccc(C(F)(F)F)cc3)cc2)nc2n(c1=O)CCCC2 [Example 385, 3-Methyl-2-[4-(4-trifluoromethylbenzoyl)benzyloxy]-6,7,8,9-tetrahydro-4H-pyrido[1,2-a]pyrimidin-4-one]
Tumor volume gain ([3]; 25 mg/kg p.o.): 893 ± 247 mm^3
T/C ([3]; 25 mg/kg p.o.): 63%
Tumor volume gain ([3]; 50 mg/kg p.o.): 732 ± 156 mm^3
T/C ([3]; 50 mg/kg p.o.): 52%
Tumor volume gain ([3]; 75 mg/kg p.o.): 596 ± 176 mm^3
T/C ([3]; 75 mg/kg p.o.): 42%

IC50 [2]: 1.9 nM
Structure (SMILES): O=C(c1ccc(Cl)cc1)c1ccc(Cn2ccn3c(=O)c4c(nc23)CCCC4)cc1 [Example 189, 1-[4-(4-Chlorobenzoyl)benzyl]-6,7,8,9-tetrahydroimidazo[2,1-b]quinazolin-5(1H)-one]
Tumor volume gain ([4]; 53rd day after transplantation, mean ± SD): 697 ± 199 mm^3
T/C ([4]; 53rd day, ratio of tumor volume gain treated/control): 53%
